Four compounds from patent EP0354818A2, “Pharmaceutical compositions containing polyaromatic compounds as active ingredient and their use” (HADASSAH MEDICAL ORGANIZATION, priority 1988, dated 1990) can be followed below.

Each structure is given as a SMILES string.

Assay [1] deals with T1, ESb mouse lymphoma heparanase (Mus musculus, UniProt Q6YGZ1).
T1 construct: endogenous in cells; host or cells: ESb mouse lymphoma cells
T1 sequence (Q6YGZ1 150-535 limits assumed): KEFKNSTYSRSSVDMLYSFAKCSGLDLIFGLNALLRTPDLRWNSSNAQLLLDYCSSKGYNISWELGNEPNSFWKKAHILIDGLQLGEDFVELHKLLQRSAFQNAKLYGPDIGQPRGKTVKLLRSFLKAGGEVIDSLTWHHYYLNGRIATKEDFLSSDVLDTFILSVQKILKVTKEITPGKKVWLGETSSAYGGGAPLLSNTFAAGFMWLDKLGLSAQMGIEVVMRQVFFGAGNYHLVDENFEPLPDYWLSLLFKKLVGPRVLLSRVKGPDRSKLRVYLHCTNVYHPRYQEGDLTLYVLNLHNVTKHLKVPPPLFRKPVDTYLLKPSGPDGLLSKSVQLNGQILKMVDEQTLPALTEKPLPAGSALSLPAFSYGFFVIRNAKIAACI
T1 sequence (Q6YGZ1 28-101 limits assumed): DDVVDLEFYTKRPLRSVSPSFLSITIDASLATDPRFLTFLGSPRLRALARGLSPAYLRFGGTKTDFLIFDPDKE
The assay is described as follows: Inhibition of heparanase degradation of 35S labelled ECM. In kind it is biochemical. Conditions: compound 10 µgr/ml, 24 hrs incubation; for Total low-mol-wt. HS fragments released by heparanase (cpm): control 17,756 cpm. Here is the method:
The ability of several of the above mentioned compounds to inhibit lymphoma-cell derived heparanase was tested in the assay system described by Vlodavsky et. al. (Cancer Research. 43: 2704-2711 (1983). ³⁵S labelled ECM was incubated for 24 hrs with ESb mouse lymphoma heparanase in the presence of 10 ugr ml of the indicated compounds. Degradation of the sulfated glycosaminoglycan was followed by gel filtration of the supernatants. Heparanase activity is expressed as the total amount of labelled low-molecular-weight fragments released from the ECM substrate. The results are summarized in Table III.

The subject of assay [2] is fresh human blood. Nature of the assay: Anticoagulant effect: partial thromboplastin time (PTT) in blood samples. The following applies: citrated human blood, after addition of Ca++, control 30.5. Here is the method: 0.25 ml of the indicated concentration of the drug (x10, diluted in saline) were added to 2.25 ml of fresh human blood, collected in the presence of citrate. PTT was measured following the addition of Ca⁺⁺.

Assay [3] concerns the target T2, LPL (Rattus norvegicus, UniProt Q06000).
T2 construct: from tissue; host or cells: rat plasma (in vivo, after oral aluminon)
T2 sequence (Q06000 28-474): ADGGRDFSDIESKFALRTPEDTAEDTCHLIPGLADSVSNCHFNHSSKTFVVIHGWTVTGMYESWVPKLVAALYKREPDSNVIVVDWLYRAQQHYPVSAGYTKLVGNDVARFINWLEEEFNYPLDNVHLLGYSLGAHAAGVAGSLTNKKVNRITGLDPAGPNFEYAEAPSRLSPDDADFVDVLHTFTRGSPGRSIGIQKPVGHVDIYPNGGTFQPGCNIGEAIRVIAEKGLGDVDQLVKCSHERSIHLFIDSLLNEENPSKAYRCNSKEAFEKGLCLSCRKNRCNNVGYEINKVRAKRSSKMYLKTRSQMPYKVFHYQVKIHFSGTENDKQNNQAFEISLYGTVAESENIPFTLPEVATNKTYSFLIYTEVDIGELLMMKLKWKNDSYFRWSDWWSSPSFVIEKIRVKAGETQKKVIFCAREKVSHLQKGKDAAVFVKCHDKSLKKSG
The assay is described as follows: Plasma levels of LPL after oral administration to rats. The format is in vivo. Conditions: 1ml of 10%-20% solution. From the text: Moreover, since aluminon can be absorbed through the gastrointestinal tract, it can be used as an orally administrable anticoagulant (as opposed to heparin which has to be given by injection).

For assay [4], the target named is T3, lipoprotein lipase (LPL) (Rattus norvegicus, UniProt Q06000).
T3 construct: endogenous in cells; host or cells: F1 heart cell cultures from newborn rat hearts (mainly non-beating mesenchymal cells)
T3 sequence (Q06000 28-474): T2 sequence (Q06000 28-474)
The assay is described as follows: LPL activity in cultured heart cells and medium. The format is cell-based. Conditions: 24 hrs incubation of heart cells; for LPL activity: total: cells plus medium; for % increase in the total: versus 0 M. Here is the method: F₁ heart cell cultures were prepared from newborn rat hearts as previously described (Chajek, T. et al, Biochem. Biophys. Acta 528, 456-474(1978)). They consisted mainly of non-beating mesenchymal cells and were used 8-12 days after their isolation.
The enzyme activity was determined on aliquots of medium and of homogenates of cells which had been released from the petri dish with a rubber policeman in 1 ml of 0.025 M NH₃/NH₄C1 buffer (pH 8.1) containing 1 unit/ml of heparin. The assay system consisted of 0.1 ml of medium or 0.1 ml of cell homogenate ([…]) and 0.1 ml of substrate containing labeled triolein, prepared according to the method of Nilsson-Ehle and Schotz, (J. Lipid Res. 17, 536-541 (1976)). Incubations were carried out at 37°C for 45 min. The reaction was stopped by the addition of methanol/chloroform/heptane (1,4:1.25:1, v/v) and the extraction of fatty acids was performed according to the method of Belfrage and Vaughan (J. Lipid Res. 10, 341-344 (1969), as modified by Nilsson-Ehle and Schotz. Enzyme activity was calculated according to the formula of Nilsson-Ehle and Schotz.

For `O=C(O)C1=CC(=C(c2ccc(O)c(C(=O)O)c2)c2ccc(O)c(C(=O)O)c2)C=CC1=O` [Aluminon], in assay [1], the “Total low-mol-wt. HS fragments released by heparanase (cpm)” value (“Total low-mol-wt. HS fragments released” for short) is listed as 3,822 cpm. Besides, the “PTT” value in assay [2] (Aluminon final conc. 0.01 mg/ml) was 30.5 s; in assay [2] (Aluminon final conc. 0.1 mg/ml), 190 s; in assay [2] (Aluminon final conc. 1 mg/ml), over 300 s. Further, the “plasma levels of LPL” value in assay [3] was “elevated by about an order of magnitude”.

The % Inhibition is the percentage by which the read-out fell short of the control. A lower % Inhibition goes with a response near the control. For `CCN(Cc1cccc(S(=O)(=O)O)c1)c1ccc(C(=C2C=CC(=[N+](CC)Cc3cccc(S(=O)(=O)O)c3)C=C2)c2ccc(O)cc2S(=O)(=O)[O-])cc1` [Fast Green], the “% Inhibition” value in assay [1] is given as 32%.

Consider `O=S(=O)(O)c1ccc(N=C2C=CC(=C(c3ccc(Nc4ccc(S(=O)(=O)O)cc4)cc3)c3ccc(Nc4ccc(S(=O)(=O)O)cc4)cc3)C=C2)cc1` [Methyl Blue], for which, in assay [1], the “% Inhibition” value is 23% and the “Total low-mol-wt. HS fragments released” value is 13,676 cpm.

As for `Cc1cc(-c2ccc(/N=N/c3ccc4c(S(=O)(=O)O)cc(S(=O)(=O)O)c(N)c4c3O)c(C)c2)ccc1/N=N/c1ccc2c(S(=O)(=O)O)cc(S(=O)(=O)O)c(N)c2c1O` [Evan's Blue], the “LPL activity: total” value in assay [4] (Evan's Blue 10⁻³ M) is reported as 7749 m mole FFA/h/dish; in assay [4] (Evan's Blue 10⁻⁴ M) it was 5230 m mole FFA/h/dish; in assay [4] (Evan's Blue 10⁻⁵ M), 4288 m mole FFA/h/dish. Moreover, the “% increase in the total” value was “+139.4%” in assay [4] (Evan's Blue 10⁻³ M), “+61.6%” in assay [4] (Evan's Blue 10⁻⁴ M) and “+32.5%” in assay [4] (Evan's Blue 10⁻⁵ M). Moreover, the “Total low-mol-wt. HS fragments released” value in assay [1] is recorded as 6,986 cpm.
